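1) Cells in 96-well plates. 2) Compound, 48 h, 5 concentrations. 3) Linear interpolation between surrounding doses. 4) Unreached endpoint = highest concentration. The concentration for 50% growth inhibition is given as GI50.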 The source made the active and inactive calls. Cut-off read from the data, not from the text of the source: active = GI50 up to about 1.1 µM and inactive = higher.
Legend:
Assay in all cases: NCI tumour cell line growth inhibition, 48 h
A498 = tested on: A498
COLO 205 = tested on: COLO 205
DMS-273 = tested on: DMS-273
HCT-116 = tested on: HCT-116
HOP-92 = tested on: HOP-92
K562 = tested on: K562
KM-20L2 = tested on: KM-20L2
LXFL 529 = tested on: LXFL 529
M14 = tested on: M14
MOLT-4 = tested on: MOLT-4
Malme-3M = tested on: Malme-3M
NCI-H460 = tested on: NCI-H460
SF-539 = tested on: SF-539
SF-268 = tested on: SF-268
SK-MEL-28 = tested on: SK-MEL-28
SK-MEL-5 = tested on: SK-MEL-5
SNB-75 = tested on: SNB-75

Measured: GI50

CN1N=C(Nc2ccccc2)Sc2c1cnn(-c1ccccc1)c2=O
inactive: A498 > 100 µM | COLO 205 > 100 µM | DMS-273 > 100 µM | HCT-116 > 100 µM | HOP-92 6.62 µM | K562 30.6 µM | KM-20L2 > 100 µM | LXFL 529 79.8 µM | M14 > 100 µM | MOLT-4 > 100 µM | Malme-3M > 100 µM | NCI-H460 > 100 µM | SF-539 > 100 µM

Cc1ccc(C)c(NC(=O)CC2SC(Nc3ccccc3Cl)=NC2=O)c1 (stereo not drawn)
inactive: A498 > 100 µM | COLO 205 > 100 µM | DMS-273 > 100 µM | HCT-116 > 100 µM | HOP-92 27.7 µM | KM-20L2 > 100 µM | LXFL 529 74.3 µM | M14 > 100 µM | MOLT-4 81.5 µM | Malme-3M > 100 µM | NCI-H460 > 100 µM | SF-268 > 100 µM | SF-539 > 100 µM | SK-MEL-28 > 100 µM | SK-MEL-5 36.1 µM | SNB-75 55.7 µM

CC1(C)CC(=O)C(CC2C(=O)CCCC2=O)C(=O)C1
inactive: A498 > 100 µM | COLO 205 > 100 µM | DMS-273 > 100 µM | HCT-116 > 100 µM | K562 > 100 µM | KM-20L2 > 100 µM | LXFL 529 > 100 µM | M14 > 100 µM | MOLT-4 > 100 µM | Malme-3M > 100 µM | NCI-H460 > 100 µM | SF-268 > 100 µM | SF-539 > 100 µM | SK-MEL-28 > 100 µM | SK-MEL-5 > 100 µM | SNB-75 > 100 µM

COc1cc(C2[C@H]3C(=O)N(c4ccc(Cc5ccc(N6C(=O)[C@@H]7ON(c8ccccc8)C(c8cc(OC)c(OC)c(OC)c8)[C@@H]7C6=O)cc5)cc4)C(=O)[C@H]3ON2c2ccccc2)cc(OC)c1OC (stereo partly drawn)
inactive: A498 > 100 µM | COLO 205 > 100 µM | DMS-273 > 100 µM | HCT-116 > 100 µM | K562 > 100 µM | KM-20L2 > 100 µM | M14 17 µM | MOLT-4 > 100 µM | Malme-3M 46.3 µM | NCI-H460 > 100 µM | SF-268 > 100 µM | SF-539 > 100 µM | SK-MEL-28 > 100 µM | SK-MEL-5 38.5 µM | SNB-75 > 100 µM

Cc1cnc[nH]c1=O
inactive: A498 > 100 µM | COLO 205 > 100 µM | DMS-273 > 100 µM | HCT-116 > 100 µM | K562 > 100 µM | KM-20L2 > 100 µM | LXFL 529 > 100 µM | M14 > 100 µM | MOLT-4 > 100 µM | Malme-3M > 100 µM | NCI-H460 > 100 µM | SF-268 > 100 µM | SK-MEL-28 > 100 µM | SK-MEL-5 > 100 µM | SNB-75 > 100 µM

O=C(N/N=C/c1ccccc1O)c1cccc([N+](=O)[O-])c1
inactive: A498 76.7 µM | COLO 205 20.9 µM | DMS-273 6.43 µM | HCT-116 22.5 µM | K562 22.4 µM | KM-20L2 8.49 µM | LXFL 529 40.8 µM | M14 14.7 µM | MOLT-4 3.1 µM | Malme-3M 30.8 µM | NCI-H460 4.68 µM | SF-268 15.7 µM | SF-539 13.8 µM | SK-MEL-28 25 µM | SK-MEL-5 9.98 µM

Cc1ccccc1C(=O)Oc1ccc(Oc2ccccc2)cc1
inactive: A498 77.6 µM | COLO 205 > 100 µM | DMS-273 > 100 µM | HCT-116 > 100 µM | K562 > 100 µM | KM-20L2 > 100 µM | LXFL 529 > 100 µM | M14 > 100 µM | MOLT-4 67 µM | Malme-3M > 100 µM | NCI-H460 39.2 µM | SF-268 > 100 µM | SF-539 > 100 µM | SK-MEL-5 > 100 µM | SNB-75 > 100 µM

CCCCCCCCCCCCCCCCCc1nnc(N)o1
inactive: COLO 205 > 100 µM | DMS-273 > 100 µM | HCT-116 > 100 µM | HOP-92 > 100 µM | K562 > 100 µM | KM-20L2 > 100 µM | LXFL 529 > 100 µM | M14 > 100 µM | MOLT-4 > 100 µM | Malme-3M > 100 µM | NCI-H460 > 100 µM | SF-268 > 100 µM | SF-539 > 100 µM | SK-MEL-28 > 100 µM | SNB-75 > 100 µM

Cc1ccc(Oc2ccc([N+](=O)[O-])cc2[N+](=O)[O-])c(C)c1
inactive: A498 37.9 µM | DMS-273 28.1 µM | HCT-116 30.3 µM | K562 30.5 µM | KM-20L2 > 10 µM | LXFL 529 41 µM | M14 48.6 µM | MOLT-4 21.5 µM | Malme-3M 75 µM | NCI-H460 37.3 µM | SF-539 58.7 µM | SK-MEL-28 67.8 µM | SK-MEL-5 21.1 µM | SNB-75 37.5 µM

COc1ccc(C2N3CCCCC3[C@@H]3c4[nH]c5ccccc5c4CCN23)c(OC)c1 (stereo partly drawn)
inactive: A498 15.5 µM | COLO 205 18.2 µM | DMS-273 16.4 µM | HCT-116 21.1 µM | HOP-92 49.9 µM | K562 26.7 µM | KM-20L2 18.8 µM | LXFL 529 21.8 µM | M14 16.8 µM | MOLT-4 21 µM | NCI-H460 22 µM | SF-268 21.1 µM | SF-539 18.5 µM | SK-MEL-28 19.1 µM | SK-MEL-5 16.3 µM

CN(C)CC1CCCCCCCCCCCCC(CN(C)C)C1=O (stereo not drawn)
inactive: A498 18.7 µM | COLO 205 14 µM | DMS-273 10.4 µM | HCT-116 4.54 µM | HOP-92 13.2 µM | KM-20L2 11.9 µM | LXFL 529 14.9 µM | M14 13.2 µM | MOLT-4 2.09 µM | Malme-3M 15.7 µM | NCI-H460 13.7 µM | SF-268 12.7 µM | SF-539 15.2 µM | SK-MEL-28 13.6 µM | SK-MEL-5 14.5 µM | SNB-75 11.9 µM

CSc1nc(NC2OCC(OC(C)=O)C(OC(C)=O)C2OC(C)=O)c(/N=C(\C)C(C)=O)c(=O)n1C (stereo not drawn)
inactive: A498 > 100 µM | COLO 205 > 100 µM | DMS-273 > 100 µM | HCT-116 > 100 µM | HOP-92 > 100 µM | K562 > 100 µM | KM-20L2 > 100 µM | LXFL 529 > 100 µM | M14 > 100 µM | MOLT-4 > 100 µM | Malme-3M > 100 µM | NCI-H460 > 100 µM | SF-539 > 100 µM | SK-MEL-5 > 100 µM | SNB-75 > 100 µM

COC(=O)C12CC3CC(C1)CC(C(=O)OC)(C3)C2
inactive: A498 > 100 µM | DMS-273 > 100 µM | HCT-116 > 100 µM | HOP-92 > 100 µM | KM-20L2 > 100 µM | LXFL 529 > 100 µM | M14 > 100 µM | MOLT-4 > 100 µM | NCI-H460 > 100 µM | SF-268 > 100 µM | SF-539 > 100 µM | SK-MEL-28 > 100 µM | SK-MEL-5 > 100 µM | SNB-75 > 100 µM

O=C1OC(c2ccccc2)=N/C1=C\c1cc(Cl)ccc1Cl
inactive: A498 > 100 µM | COLO 205 > 100 µM | HCT-116 10.3 µM | HOP-92 > 100 µM | K562 18.1 µM | KM-20L2 > 100 µM | LXFL 529 28.5 µM | M14 32.6 µM | MOLT-4 23 µM | Malme-3M > 100 µM | NCI-H460 > 100 µM | SF-268 66.2 µM | SF-539 72.4 µM | SK-MEL-28 > 100 µM | SK-MEL-5 > 100 µM | SNB-75 3.48 µM

CSc1ccc2c(cc1=O)C(NC(=O)c1ccc(C#N)cc1)CCc1cc(O)c(O)c(O)c1-2 (stereo not drawn)
inactive: A498 44.5 µM | COLO 205 19.6 µM | DMS-273 34.9 µM | HCT-116 18.4 µM | K562 7.26 µM | KM-20L2 24.7 µM | LXFL 529 19.8 µM | M14 30 µM | MOLT-4 22.5 µM | Malme-3M > 100 µM | NCI-H460 27.6 µM | SF-268 43.4 µM | SF-539 15.5 µM | SK-MEL-28 > 100 µM | SK-MEL-5 15.4 µM | SNB-75 4.2 µM

COc1ccc(-c2cc(=O)c3c(O)c(OC)c(O)c(OC)c3o2)cc1OC
inactive: A498 36.4 µM | COLO 205 92.3 µM | DMS-273 54.1 µM | HCT-116 57 µM | HOP-92 25.1 µM | K562 45.9 µM | KM-20L2 > 100 µM | LXFL 529 61.1 µM | M14 > 100 µM | MOLT-4 42.3 µM | Malme-3M > 100 µM | SF-268 90.2 µM | SF-539 46.2 µM | SK-MEL-28 > 100 µM | SK-MEL-5 > 100 µM | SNB-75 21.8 µM

CCCN1C(=O)CNC(=O)c2[nH]cnc21
inactive: A498 > 100 µM | COLO 205 > 100 µM | HCT-116 > 100 µM | HOP-92 > 100 µM | K562 > 100 µM | KM-20L2 > 100 µM | LXFL 529 > 100 µM | M14 > 100 µM | MOLT-4 > 100 µM | Malme-3M > 100 µM | NCI-H460 > 100 µM | SF-268 > 100 µM | SF-539 > 100 µM | SK-MEL-28 > 100 µM | SK-MEL-5 > 100 µM | SNB-75 > 100 µM

Source: ChEMBL document CHEMBL1201862, “PubChem BioAssay data set” (2004)
